Experimental data as given in ChEMBL document CHEMBL3751693, “Synthesis, antimicrobial evaluation and molecular modeling of 5-hydroxyisoquinolinium salt series; the effect of the hydroxyl moiety” (Bioorg Med Chem, 2016).

Tests used:
Staphylococcus aureus [1] = assay: Antimicrobial activity against clinical isolate Staphylococcus aureus CCM 451608 after 24 hrs; assay type: functional; settings: CCM 451608, 24 h
Staphylococcus aureus [2] = assay: Antimicrobial activity against clinical isolate Staphylococcus aureus CCM 451608 after 48 hrs; assay type: functional; settings: CCM 451608, 48 h
Staphylococcus aureus [3] = assay: Antimicrobial activity against clinical isolate methicillin-resistant Staphylococcus aureus H 599608 after 24 hrs; assay type: functional; settings: H 599608, 24 h
Staphylococcus aureus [4] = assay: Antimicrobial activity against clinical isolate methicillin-resistant Staphylococcus aureus H 599608 after 48 hrs; assay type: functional; settings: H 599608, 48 h
[5] = tested on: Staphylococcus epidermidis; assay: Antimicrobial activity against clinical isolate Staphylococcus epidermidis H 696608 after 24 hrs; assay type: functional; settings: H 696608, 24 h
[6] = tested on: Staphylococcus epidermidis; assay: Antimicrobial activity against clinical isolate Staphylococcus epidermidis H 696608 after 48 hrs; assay type: functional; settings: H 696608, 48 h
Enterococcus sp. [7] = assay: Antimicrobial activity against clinical isolate Enterococcus sp. J 1436508 after 24 hrs; assay type: functional; settings: J 1436508, 24 h
Enterococcus sp. [8] = assay: Antimicrobial activity against clinical isolate Enterococcus sp. J 1436508 after 48 hrs; assay type: functional; settings: J 1436508, 48 h
Escherichia coli [9] = assay: Antimicrobial activity against clinical isolate Escherichia coli CCM 4517 after 24 hrs; assay type: functional; settings: CCM 4517, 24 h
Escherichia coli [10] = assay: Antimicrobial activity against clinical isolate Escherichia coli CCM 4517 after 48 hrs; assay type: functional; settings: CCM 4517, 48 h
Klebsiella pneumoniae [11] = assay: Antimicrobial activity against clinical isolate Klebsiella pneumoniae D 1175008 after 24 hrs; assay type: functional; settings: D 1175008, 24 h
Klebsiella pneumoniae [12] = assay: Antimicrobial activity against clinical isolate Klebsiella pneumoniae D 1175008 after 48 hrs; assay type: functional; settings: D 1175008, 48 h
Klebsiella pneumoniae [13] = assay: Antimicrobial activity against clinical isolate ESBL-Klebsiella pneumoniae J 1436808 after 24 hrs; assay type: functional; settings: J 1436808, 24 h
Klebsiella pneumoniae [14] = assay: Antimicrobial activity against clinical isolate ESBL-Klebsiella pneumoniae J 1436808 after 48 hrs; assay type: functional; settings: J 1436808, 48 h
Pseudomonas aeruginosa [15] = assay: Antimicrobial activity against clinical isolate Pseudomonas aeruginosa CCM 1961 after 72 hrs; assay type: functional; settings: CCM 1961, 72 h
Pseudomonas aeruginosa [16] = assay: Antimicrobial activity against clinical isolate Pseudomonas aeruginosa CCM 1961 after 120 hrs; assay type: functional; settings: CCM 1961, 120 h
Candida albicans [17] = assay: Antimicrobial activity against Candida albicans ATCC 44859 after 24 hrs by spectrophotometry; assay type: functional; settings: ATCC 44859, 24 h
Aspergillus fumigatus [18] = assay: Antimicrobial activity against Aspergillus fumigatus 231 after 24 hrs by spectrophotometry; assay type: functional; settings: Aspergillus fumigatus, 231, 24 h
Candida albicans [19] = assay: Antimicrobial activity against Candida albicans ATCC 44859 after 48 hrs by spectrophotometry; assay type: functional; settings: ATCC 44859, 48 h
Candida tropicalis [20] = assay: Antimicrobial activity against Candida tropicalis 156 after 24 hrs by spectrophotometry; assay type: functional; settings: Candida tropicalis, 156, 24 h
Candida tropicalis [21] = assay: Antimicrobial activity against Candida tropicalis 156 after 48 hrs by spectrophotometry; assay type: functional; settings: Candida tropicalis, 156, 48 h
Pichia kudriavzevii [22] = assay: Antimicrobial activity against Candida krusei E28 after 24 hrs by spectrophotometry; assay type: functional; settings: E28, 24 h
Pichia kudriavzevii [23] = assay: Antimicrobial activity against Candida krusei E28 after 48 hrs by spectrophotometry; assay type: functional; settings: E28, 48 h
Nakaseomyces glabratus [24] = assay: Antimicrobial activity against Candida glabrata 20/I after 24 hrs by spectrophotometry; assay type: functional
Nakaseomyces glabratus [25] = assay: Antimicrobial activity against Candida glabrata 20/I after 48 hrs by spectrophotometry; assay type: functional
Trichosporon asahii [26] = assay: Antimicrobial activity against Trichosporon asahii 1188 after 24 hrs by spectrophotometry; assay type: functional; settings: Trichosporon asahii, 1188, 24 h
Trichosporon asahii [27] = assay: Antimicrobial activity against Trichosporon asahii 1188 after 48 hrs by spectrophotometry; assay type: functional; settings: Trichosporon asahii, 1188, 48 h
Aspergillus fumigatus [28] = assay: Antimicrobial activity against Aspergillus fumigatus 231 after 48 hrs by spectrophotometry; assay type: functional; settings: Aspergillus fumigatus, 231, 48 h
Lichtheimia corymbifera [29] = assay: Antimicrobial activity against Absidia corymbifera 272 after 24 hrs by spectrophotometry; assay type: functional; settings: Lichtheimia corymbifera, 272, 24 h
Lichtheimia corymbifera [30] = assay: Antimicrobial activity against Absidia corymbifera 272 after 48 hrs by spectrophotometry; assay type: functional; settings: Lichtheimia corymbifera, 272, 48 h
[31] = tested on: Trichophyton mentagrophytes; assay: Antimicrobial activity against Trichophyton mentagrophytes 445 after 72 hrs by spectrophotometry; assay type: functional; settings: Trichophyton mentagrophytes, 445, 72 h
[32] = tested on: Trichophyton mentagrophytes; assay: Antimicrobial activity against Trichophyton mentagrophytes 445 after 120 hrs by spectrophotometry; assay type: functional; settings: Trichophyton mentagrophytes, 445, 120 h
[33] = Cytotoxicity against CHOK1 cells after 24 hrs by MTT assay; assay type: cell-based; settings: Cricetulus griseus, CHO-K1, 24 h

Compound `CCCCCCCCCCCCCC[N+](C)(C)Cc1ccccc1` has an MIC (Staphylococcus aureus [1]) of 1 µM, an MBC (Staphylococcus aureus [2]) of 3.9 µM and an MIC (Staphylococcus aureus [2]) of 1 µM. The MIC (Staphylococcus aureus [3]) was 2 µM, the MBC (Staphylococcus aureus [4]) was 3.9 µM and the MIC (Staphylococcus aureus [4]) was 2 µM. The MIC [5] was 1 µM, the MBC [6] was 1 µM and the MIC [6] was 1 µM. It also gave an MIC (Enterococcus sp. [7]) of 2 µM, an MBC (Enterococcus sp. [8]) of 7.8 µM and an MIC (Enterococcus sp. [8]) of 2 µM. The MIC (Escherichia coli [9]) was 7.8 µM, the MBC (Escherichia coli [10]) was 7.8 µM and the MIC (Escherichia coli [10]) was 7.8 µM. It also gave an MIC (Klebsiella pneumoniae [11]) of 7.8 µM, an MBC (Klebsiella pneumoniae [12]) of 7.8 µM and an MIC (Klebsiella pneumoniae [12]) of 7.8 µM. For the same compound, the MIC (Klebsiella pneumoniae [13]) was 7.8 µM, the MBC (Klebsiella pneumoniae [14]) was 7.8 µM and the MIC (Klebsiella pneumoniae [14]) was 7.8 µM. For the same compound, the MIC (Pseudomonas aeruginosa [15]) was 16 µM, the MBC (Pseudomonas aeruginosa [16]) was 63 µM and the MIC (Pseudomonas aeruginosa [16]) was 16 µM. The MIC (Candida albicans [17]) was 7.8 µM, the MIC (Aspergillus fumigatus [18]) was 7.8 µM and the MFC (Candida albicans [19]) was 125 µM. It also gave an MIC (Candida albicans [19]) of 7.8 µM, an MIC (Candida tropicalis [20]) of 3.9 µM and an MFC (Candida tropicalis [21]) of 125 µM. The MIC (Candida tropicalis [21]) was 3.9 µM, the MIC (Pichia kudriavzevii [22]) was 3.9 µM and the MFC (Pichia kudriavzevii [23]) was 125 µM. It also gave an MIC (Pichia kudriavzevii [23]) of 3.9 µM, an MIC (Nakaseomyces glabratus [24]) of 7.8 µM and an MFC (Nakaseomyces glabratus [25]) of 125 µM. It also gave an MIC (Nakaseomyces glabratus [25]) of 7.8 µM, an MIC (Trichosporon asahii [26]) of 31 µM and an MFC (Trichosporon asahii [27]) of 125 µM. It also gave an MIC (Trichosporon asahii [27]) of 31 µM, an MFC (Aspergillus fumigatus [28]) of 125 µM and an MIC (Aspergillus fumigatus [28]) of 16 µM. The MIC (Lichtheimia corymbifera [29]) was 31 µM, the MFC (Lichtheimia corymbifera [30]) was 125 µM and the MIC (Lichtheimia corymbifera [30]) was 31 µM. It also gave an MIC [31] of 16 µM, an MFC [32] of 16 µM and an MIC [32] of 16 µM. It also gave an IC50 [33] of 24 µM.
Compound `CCCCCCCCCCCC[N+](C)(C)Cc1ccccc1` has an MIC (Staphylococcus aureus [1]) of 0.5 µM, an MBC (Staphylococcus aureus [2]) of 2 µM and an MIC (Staphylococcus aureus [2]) of 2 µM. For the same compound, the MIC (Staphylococcus aureus [3]) was 0.5 µM, the MBC (Staphylococcus aureus [4]) was 1 µM and the MIC (Staphylococcus aureus [4]) was 0.5 µM. It also gave an MIC [5] of 0.5 µM, an MBC [6] of 0.5 µM and an MIC [6] of 0.5 µM. It also gave an MIC (Enterococcus sp. [7]) of 0.5 µM, an MBC (Enterococcus sp. [8]) of 1 µM and an MIC (Enterococcus sp. [8]) of 1 µM. For the same compound, the MIC (Escherichia coli [9]) was 0.5 µM, the MBC (Escherichia coli [10]) was 2 µM and the MIC (Escherichia coli [10]) was 2 µM. It also gave an MIC (Klebsiella pneumoniae [11]) of 0.5 µM, an MBC (Klebsiella pneumoniae [12]) of 0.5 µM and an MIC (Klebsiella pneumoniae [12]) of 0.5 µM. For the same compound, the MIC (Klebsiella pneumoniae [13]) was 1 µM, the MBC (Klebsiella pneumoniae [14]) was 1 µM and the MIC (Klebsiella pneumoniae [14]) was 1 µM. It also gave an MIC (Pseudomonas aeruginosa [15]) of 3.9 µM, an MBC (Pseudomonas aeruginosa [16]) of 7.8 µM and an MIC (Pseudomonas aeruginosa [16]) of 3.9 µM. For the same compound, the MIC (Candida albicans [17]) was 0.5 µM, the MIC (Aspergillus fumigatus [18]) was 1 µM and the MFC (Candida albicans [19]) was 1 µM. For the same compound, the MIC (Candida albicans [19]) was 0.5 µM, the MIC (Candida tropicalis [20]) was 0.5 µM and the MFC (Candida tropicalis [21]) was 1 µM. For the same compound, the MIC (Candida tropicalis [21]) was 0.5 µM, the MIC (Pichia kudriavzevii [22]) was 0.5 µM and the MFC (Pichia kudriavzevii [23]) was 0.5 µM. For the same compound, the MIC (Pichia kudriavzevii [23]) was 0.5 µM, the MIC (Nakaseomyces glabratus [24]) was 0.5 µM and the MFC (Nakaseomyces glabratus [25]) was 0.5 µM. For the same compound, the MIC (Nakaseomyces glabratus [25]) was 0.5 µM, the MIC (Trichosporon asahii [26]) was 0.5 µM and the MFC (Trichosporon asahii [27]) was 2 µM. The MIC (Trichosporon asahii [27]) was 2 µM, the MFC (Aspergillus fumigatus [28]) was 3.9 µM and the MIC (Aspergillus fumigatus [28]) was 3.9 µM. It also gave an MIC (Lichtheimia corymbifera [29]) of 7.8 µM, an MFC (Lichtheimia corymbifera [30]) of 7.8 µM and an MIC (Lichtheimia corymbifera [30]) of 7.8 µM. The MIC [31] was 1 µM, the MFC [32] was 2 µM and the MIC [32] was 1 µM. For the same compound, the IC50 [33] was 29 µM.
With `CCCCCCCCCCCCCCCC[N+](C)(C)Cc1ccccc1` the MIC (Staphylococcus aureus [1]) was 1 µM, the MBC (Staphylococcus aureus [2]) was 3.9 µM and the MIC (Staphylococcus aureus [2]) was 1 µM. It also gave an MIC (Staphylococcus aureus [3]) of 2 µM, an MBC (Staphylococcus aureus [4]) of 3.9 µM and an MIC (Staphylococcus aureus [4]) of 2 µM. It also gave an MIC [5] of 0.5 µM, an MBC [6] of 3.9 µM and an MIC [6] of 0.5 µM. It also gave an MIC (Enterococcus sp. [7]) of 2 µM, an MBC (Enterococcus sp. [8]) of 3.9 µM and an MIC (Enterococcus sp. [8]) of 2 µM. For the same compound, the MIC (Escherichia coli [9]) was 7.8 µM, the MBC (Escherichia coli [10]) was 7.8 µM and the MIC (Escherichia coli [10]) was 7.8 µM. For the same compound, the MIC (Klebsiella pneumoniae [11]) was 7.8 µM, the MBC (Klebsiella pneumoniae [12]) was 7.8 µM and the MIC (Klebsiella pneumoniae [12]) was 7.8 µM. For the same compound, the MIC (Klebsiella pneumoniae [13]) was 7.8 µM, the MBC (Klebsiella pneumoniae [14]) was 7.8 µM and the MIC (Klebsiella pneumoniae [14]) was 7.8 µM. For the same compound, the MIC (Pseudomonas aeruginosa [15]) was 16 µM, the MBC (Pseudomonas aeruginosa [16]) was 125 µM and the MIC (Pseudomonas aeruginosa [16]) was 16 µM. For the same compound, the MIC (Candida albicans [17]) was 3.9 µM, the MIC (Aspergillus fumigatus [18]) was 7.8 µM and the MFC (Candida albicans [19]) was 7.8 µM. The MIC (Candida albicans [19]) was 7.83 µM, the MIC (Candida tropicalis [20]) was 3.9 µM and the MFC (Candida tropicalis [21]) was 7.8 µM. For the same compound, the MIC (Candida tropicalis [21]) was 7.8 µM, the MIC (Pichia kudriavzevii [22]) was 2 µM and the MFC (Pichia kudriavzevii [23]) was 2 µM. For the same compound, the MIC (Pichia kudriavzevii [23]) was 2 µM, the MIC (Nakaseomyces glabratus [24]) was 2 µM and the MFC (Nakaseomyces glabratus [25]) was 63 µM. It also gave an MIC (Nakaseomyces glabratus [25]) of 3.9 µM, an MIC (Trichosporon asahii [26]) of 7.8 µM and an MFC (Trichosporon asahii [27]) of 63 µM. The MIC (Trichosporon asahii [27]) was 7.8 µM, the MFC (Aspergillus fumigatus [28]) was 63 µM and the MIC (Aspergillus fumigatus [28]) was 7.8 µM. The MIC (Lichtheimia corymbifera [29]) was 7.8 µM, the MFC (Lichtheimia corymbifera [30]) was 63 µM and the MIC (Lichtheimia corymbifera [30]) was 7.8 µM. The MIC [31] was 7.8 µM, the MFC [32] was 63 µM and the MIC [32] was 7.8 µM. It also gave an IC50 [33] of 15 µM.
